We go through 15 compounds from patent publication US7825139B2, “Compounds and methods for selective inhibition of dipeptidyl peptidase-IV” (Forest Laboratories Holdings Limited (BM), priority 2005, dated 2010).

One data set concerns the target T1, DPP-VIII (Homo sapiens, UniProt Q6V1X1).
T1 construct: The full length cDNAs for human DPP-VII, DPP-VIII, DPP-IX, and FAP were obtained from Open Biosystems; 6xHis (C); made in house
Briefly: DPP-VIII IC50 assay (Ala-Pro AMC), selectivity versus DPP-IV. The format is biochemical. The note with it: IC50 of DPP-VIII divided by IC50 for DPP-IV. An excerpt: (§1) The term “selectivity ratio” refers to the IC50 value generated in a biochemical assay measuring inhibition of DPP-IV compared to the IC50 value generated in a biochemical assay measuring inhibition of another DPP family member (e.g. DPP-VII, DPP-VIII, DPP-IX or FAP) whereby the ratio is obtained by dividing the IC50 value of DPP-VII, DPP-VIII, DPP-IX or FAP by the IC50 value for DPP-IV.
(§2) Materials. S9 insect cells and Sf-900 II SFM media were from Invitrogen. Anti-FLAG M2 immunoaffinity gel was from Sigma. Gly-Pro-AMC, Lys-Pro AMC, and Ala-Pro AMC were from Enzyme Systems. IC50 calculations were performed by non-linear regression analysis using Prism software (GraphPad). Preparation of DPP-VII, DPP-VIII, DPP-IX, and FAP baculovirus constructs. The full length cDNAs for human DPP-VII, DPP-VIII, DPP-IX, and FAP were obtained from Open Biosystems. […] Baculovirus was prepared using the Bac-to-Bac Baculovirus Expression System (Invitrogen). The cDNAs in the final baculovirus constructs were sequence verified. Baculovirus expression. […] Infection with DPP-VII, DPP-VIII, DPP-IX, and FAP baculoviral constructs were all performed at an MOI of 4. The infected cells were grown for 48 hours and the cell pellets harvested and frozen until purification. DPP-VII was purified using anti-FLAG immunoaffinity gel according to the manufacturer's instructions. DPP-VIII, DPP-IX, and FAP were purified using a B-PER 6xHis Fusion Protein Column Purification Kit from Pierce. IC50 assay. Recombinant DPPs were diluted in reaction buffer to give fluorescence values of 5000-20000 counts in the “enzyme only wells” 20 min after addition of substrate at 27° C. Reaction buffers were 25 mM (2-(4-Morpholino)-Ethane Sulfonic Acid), pH 5.5 for DPP-VII, 25 mM Tris, pH 8, 1% Triton X-100, 100 mM NaCl for DPP-VIII, and 25 mM Tris pH 8 for DPP-1× and FAP. Test wells in a 96-well microtiter plate contained 88 μL of diluted DPP and 2.5 ul of titrated compound in 50 mM glycine, pH 2.6. “Enzyme only” wells contained 88 uL of diluted DPP and 2.5 ul of glycine buffer. “No enzyme” wells contained 88 uL of reaction buffer without DPP and 2.5 ul of glycine buffer. All assays were done in triplicate. The plate was incubated at 27° C. for 10 min and then cooled on ice for 10 min. Ten microliters of substrate diluted in reaction buffer (40 uM final concentration) without Triton or NaCl were then added to all wells followed by incubation at 27C for 20 min. Substrates were Lys-Pro AMC for DPP-VII, and Ala-Pro AMC for DPP-VIII, DPP-IX, and FAP. Fluorescence in each well was measured at settings of 380/460 nm.

In a further data set the target is T2, DPP-VII (Homo sapiens, UniProt Q9UHL4).
T2 construct: The full length cDNAs for human DPP-VII, DPP-VIII, DPP-IX, and FAP were obtained from Open Biosystems; FLAG (N); made in house
Briefly: DPP-VII IC50 assay (Lys-Pro AMC), selectivity versus DPP-IV. Format: biochemical. To be noted: IC50 of DPP-VII divided by IC50 for DPP-IV.
From the text: as §1, §2

The target of another data set is T3, FAP (Homo sapiens, UniProt Q12884).
T3 construct: The full length cDNAs for human DPP-VII, DPP-VIII, DPP-IX, and FAP were obtained from Open Biosystems; 6xHis (N); made in house
T3 sequence (Q12884 1-760): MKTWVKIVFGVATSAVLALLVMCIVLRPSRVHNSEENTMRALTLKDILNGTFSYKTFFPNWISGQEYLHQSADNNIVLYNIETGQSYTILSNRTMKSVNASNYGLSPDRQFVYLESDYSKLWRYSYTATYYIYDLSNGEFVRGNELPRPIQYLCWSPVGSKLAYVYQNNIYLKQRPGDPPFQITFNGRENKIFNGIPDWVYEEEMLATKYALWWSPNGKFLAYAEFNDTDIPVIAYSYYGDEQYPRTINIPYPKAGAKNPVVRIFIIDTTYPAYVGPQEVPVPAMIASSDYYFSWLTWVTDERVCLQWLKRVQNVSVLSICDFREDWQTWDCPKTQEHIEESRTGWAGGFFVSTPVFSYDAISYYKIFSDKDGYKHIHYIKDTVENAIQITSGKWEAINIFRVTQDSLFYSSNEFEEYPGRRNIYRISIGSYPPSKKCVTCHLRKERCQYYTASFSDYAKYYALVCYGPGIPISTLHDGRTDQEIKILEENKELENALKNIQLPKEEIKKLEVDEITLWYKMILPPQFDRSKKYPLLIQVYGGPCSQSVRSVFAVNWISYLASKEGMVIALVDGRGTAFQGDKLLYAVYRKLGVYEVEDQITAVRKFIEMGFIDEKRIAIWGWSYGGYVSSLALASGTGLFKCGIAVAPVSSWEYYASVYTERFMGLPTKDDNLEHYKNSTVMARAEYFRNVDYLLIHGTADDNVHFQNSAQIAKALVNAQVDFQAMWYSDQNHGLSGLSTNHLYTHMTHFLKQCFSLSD
Put plainly: FAP IC50 assay (Ala-Pro AMC), selectivity versus DPP-IV. Format: biochemical. To be noted: IC50 of FAP divided by IC50 for DPP-IV.
From the text: as §1, §2

Another data set relates to Zucker Obese Fatty rats. Put plainly: Toxicity in rats, oral dosing. The format is in vivo, rat. The note with it: 1 mg/kg, 4-24 hrs post-dose, all Zucker Obese Fatty rats tested. An excerpt: Toxicity in Rats: The Zucker Diabetic Fatty (ZDF) rat model can be used to investigate the effects of the compounds of the invention on both the treatment and prevention of diabetes as rats of this sub-strain are initially pre-diabetic although they develop severe type 2 diabetes characterized by increased HbAl c levels over a period of 6 weeks. The same strain can be used to predict the clinical efficacy of other anti-diabetic drug types. For example, the model predicts the potency and limited clinical efficacy of thiazolidinedione insulin sensitizer compounds. The experimental protocol requires p.o. (oral gavage) administration of either vehicle or test article at indicated doses either QD or BID using a gastric feeding needle with a ball tip, without anesthesia, using hand restraint to adult rats which have been fasted overnight. Animals are monitored for clinical signs at 1, 2, 4 and 8 hour time intervals following the treatment regimen. Whole blood samples (to a maximum level of 10% of the total blood volume every 2 weeks) were collected from the animals from the retro-orbital sinus in accordance with the guidelines of the IACUC committee.
The expected therapeutic dose level could not be reached for the comparative compounds before acute toxicity was observed.

T1 sequence (Q6V1X1 whole entry): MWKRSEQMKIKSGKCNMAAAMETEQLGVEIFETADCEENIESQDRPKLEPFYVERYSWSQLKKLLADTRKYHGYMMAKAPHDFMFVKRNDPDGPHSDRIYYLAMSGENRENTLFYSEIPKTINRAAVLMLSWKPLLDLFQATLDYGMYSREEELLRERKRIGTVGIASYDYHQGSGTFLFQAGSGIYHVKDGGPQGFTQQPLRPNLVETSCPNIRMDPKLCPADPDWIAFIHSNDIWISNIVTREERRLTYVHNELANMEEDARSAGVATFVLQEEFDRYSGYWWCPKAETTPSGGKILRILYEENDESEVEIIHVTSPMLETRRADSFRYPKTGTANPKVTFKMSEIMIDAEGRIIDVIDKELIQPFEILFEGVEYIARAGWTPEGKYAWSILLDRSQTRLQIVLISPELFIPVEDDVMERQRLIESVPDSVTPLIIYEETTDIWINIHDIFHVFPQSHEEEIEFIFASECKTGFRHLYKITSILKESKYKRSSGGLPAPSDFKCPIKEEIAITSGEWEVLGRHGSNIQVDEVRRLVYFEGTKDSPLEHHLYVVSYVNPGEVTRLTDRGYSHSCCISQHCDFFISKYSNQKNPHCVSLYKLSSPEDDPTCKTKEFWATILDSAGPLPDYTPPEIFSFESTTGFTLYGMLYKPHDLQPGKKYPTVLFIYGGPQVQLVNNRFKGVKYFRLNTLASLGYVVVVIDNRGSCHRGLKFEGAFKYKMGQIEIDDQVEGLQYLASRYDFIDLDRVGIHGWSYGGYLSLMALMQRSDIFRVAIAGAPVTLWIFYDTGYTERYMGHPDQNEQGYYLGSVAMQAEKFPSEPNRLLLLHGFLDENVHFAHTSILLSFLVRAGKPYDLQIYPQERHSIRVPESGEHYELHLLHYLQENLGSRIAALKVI

Consider `N[C@@H]1CCN(S(=O)(=O)c2cccc(-c3ccccc3)c2)C[C@H]1C(=O)N1CCC[C@H]1B(O)O` [Compound 17, (2R)-1-[(3R,4R)-4-amino-1-(biphenyl-3-sulfonyl)-piperidine-3-carbonyl]-boroPro-OH], for which the “Selectivity Ratios DPP-VIII” value at DPP-VIII is given as “E (E > 100)”. The “Selectivity Ratios DPP-VII” value at DPP-VII is reported as “C (10 < C ≦ 50)”. Besides, the “Selectivity Ratios FAP” value on FAP was “C (10 < C ≦ 50)”.

As for `CS(=O)(=O)c1ccc(S(=O)(=O)N2CC[C@@H](N)[C@H](C(=O)N3CCC[C@H]3B(O)O)C2)cc1` [Compound 13, (2R)-1-[(3R,4R)-4-amino-1-(4-methanesulfonyl-benzenesulfonyl)-piperidine-3-carbonyl]-boroPro-OH], the “Selectivity Ratios DPP-VIII” value on DPP-VIII is “D (50 < D ≦ 100)”. The “Selectivity Ratios DPP-VII” value at DPP-VII was “E (E > 100)”. Moreover, the “Selectivity Ratios FAP” value at FAP is recorded as “E (E > 100)”.

As to `N[C@@H]1CN(S(=O)(=O)c2cccc3ccccc23)CC[C@H]1C(=O)N1CCC[C@H]1B(O)O` [Compound 14, (2R)-1-[(3R,4R)-4-amino-1-(naphthalene-1-sulfonyl)-piperidine-3-carbonyl]-boroPro-OH], at DPP-VIII, the “Selectivity Ratios DPP-VIII” value is given as “C (10 < C ≦ 50)”. Further, the “Selectivity Ratios DPP-VII” value on DPP-VII is reported as “C (10 < C ≦ 50)”. Besides, the “Selectivity Ratios FAP” value at FAP is given as “C (10 < C ≦ 50)”.

As to `CC(C)[C@H](N)C(=O)N1CCC[C@H]1B(O)O` [PT100], the “acute toxicity in rats” value in the data set on Zucker Obese Fatty rats is reported as “acute toxicity (death)”.

For `N[C@@H]1CCN(S(=O)(=O)c2ccccc2F)C[C@H]1C(=O)N1CCC[C@H]1B(O)O` [Compound 10, (2R)-1-[(3R,4R)-4-amino-1-(2-fluoro-benzenesulfonyl)-piperidine-3-carbonyl]-boroPro-OH], at DPP-VIII, the “Selectivity Ratios DPP-VIII” value is listed as “C (10 < C ≦ 50)”. Moreover, the “Selectivity Ratios DPP-VII” value on DPP-VII is “E (E > 100)”. Besides, the “Selectivity Ratios FAP” value on FAP was “D (50 < D ≦ 100)”.

As to `Cl.O=C(CN[C@@H]1CCCNC1)N1CCC[C@H]1B(O)O` [Compound 21, reference compound], the “Selectivity Ratios DPP-VIII” value on DPP-VIII was “B (1 < B ≦ 10)”. In addition, on DPP-VII, the “Selectivity Ratios DPP-VII” value is “A (A ≦ 1)”. The “Selectivity Ratios FAP” value at FAP is given as “C (10 < C ≦ 50)”.

On to `N[C@@H]1CCN(S(=O)(=O)c2cccc(F)c2)C[C@H]1C(=O)N1CCC[C@H]1B(O)O` [Compound 9, (2R)-1-[(3R,4R)-4-amino-1-(3-fluoro-benzenesulfonyl)-piperidine-3-carbonyl]-boroPro-OH], for which the “Selectivity Ratios DPP-VIII” value on DPP-VIII was “D (50 < D ≦ 100)”. Moreover, the “Selectivity Ratios DPP-VII” value at DPP-VII was “E (E > 100)”. In addition, at FAP, the “Selectivity Ratios FAP” value was “D (50 < D ≦ 100)”.

Turning to `N[C@@H]1CCN(S(=O)(=O)c2ccc(F)cc2F)C[C@H]1C(=O)N1CCC[C@H]1B(O)O` [Compound 11, (2R)-1-[(3R,4R)-4-amino-1-(2,4-difluoro-benzenesulfonyl)-piperidine-3-carbonyl]-boroPro-OH], the “Selectivity Ratios DPP-VIII” value on DPP-VIII is given as “D (50 < D ≦ 100)”. The “Selectivity Ratios DPP-VII” value at DPP-VII is “E (E > 100)”. In addition, on FAP, the “Selectivity Ratios FAP” value is recorded as “E (E > 100)”.

In the case of `N[C@@H]1CCN(S(=O)(=O)c2ccc(-c3ccccc3)cc2)C[C@H]1C(=O)N1CCC[C@H]1B(O)O` [Compound 16, (2R)-1-[(3R,4R)-4-amino-1-(biphenyl-4-sulfonyl)-piperidine-3-carbonyl]-boroPro-OH], at DPP-VIII, the “Selectivity Ratios DPP-VIII” value is listed as “E (E > 100)”. Further, the “Selectivity Ratios DPP-VII” value at DPP-VII is “E (E > 100)”. The “Selectivity Ratios FAP” value at FAP is “C (10 < C ≦ 50)”.

For the compound `O=C(CNC1CCNCC1)N1CCC[C@H]1B(O)O` [Compound 20, reference compound], the “Selectivity Ratios DPP-VIII” value at DPP-VIII is “B (1 < B ≦ 10)”. The “Selectivity Ratios DPP-VII” value on DPP-VII was “A (A ≦ 1)”. Also, at FAP, the “Selectivity Ratios FAP” value is on record as “E (E > 100)”.

For `N[C@@H]1CCN(S(=O)(=O)c2ccc(F)cc2)C[C@H]1C(=O)N1CCC[C@H]1B(O)O` [Compound 8, (2R)-1-[(3R,4R)-4-amino-1-(4-fluoro-benzenesulfonyl)-piperidine-3-carbonyl]-boroPro-OH], the “Selectivity Ratios DPP-VIII” value at DPP-VIII is on record as “D (50 < D ≦ 100)”. Besides, at DPP-VII, the “Selectivity Ratios DPP-VII” value is given as “E (E > 100)”. The “Selectivity Ratios FAP” value on FAP is given as “D (50 < D ≦ 100)”.

As to `CS(=O)(=O)N1CC[C@@H](N)[C@H](C(=O)N2CCC[C@H]2B(O)O)C1` [Compound 7, (2R)-1-[(3R,4R)-4-amino-1-methanesulfonyl-piperidine-3-carbonyl]-boroPro-OH], on DPP-VIII, the “Selectivity Ratios DPP-VIII” value is “C (10 < C ≦ 50)”. On DPP-VII, the “Selectivity Ratios DPP-VII” value is reported as “E (E > 100)”. The “Selectivity Ratios FAP” value on FAP is given as “E (E > 100)”.

For the compound `N[C@@H]1CCN(S(=O)(=O)c2cc(F)c(F)cc2F)C[C@H]1C(=O)N1CCC[C@H]1B(O)O` [Compound 12, (2R)-1-[(3R,4R)-4-amino-1-(2,4,5-trifluoro-benzenesulfonyl)-piperidine-3-carbonyl]-boroPro-OH], the “Selectivity Ratios DPP-VIII” value on DPP-VIII is on record as “C (10 < C ≦ 50)”. Further, the “Selectivity Ratios DPP-VII” value on DPP-VII is listed as “C (10 < C ≦ 50)”. Also, the “Selectivity Ratios FAP” value at FAP is “C (10 < C ≦ 50)”.

Turning to `N[C@@H]1CCN(S(=O)(=O)c2ccccc2)C[C@H]1C(=O)N1CCC[C@H]1B(O)O` [Compound 6, (2R)-1-[(3R,4R)-4-amino-1-Benzenesulfonyl-piperidine-3-carbonyl]-boroPro-OH], the “Selectivity Ratios DPP-VIII” value at DPP-VIII is given as “D (50 < D ≦ 100)”. For the same compound, the “Selectivity Ratios DPP-VII” value on DPP-VII is “E (E > 100)”. The “Selectivity Ratios FAP” value on FAP is “E (E > 100)”.

In the case of `CC(C)S(=O)(=O)N1CC[C@@H](N)[C@H](C(=O)N2CCC[C@H]2B(O)O)C1` [Compound 18, (2R)-1-[(3R,4R)-4-amino-1-(propane-2-sulfonyl)-piperidine-3-carbonyl]-boroPro-OH], the “Selectivity Ratios DPP-VIII” value on DPP-VIII is “C (10 < C ≦ 50)”. Moreover, on DPP-VII, the “Selectivity Ratios DPP-VII” value is given as “C (10 < C ≦ 50)”. On FAP, the “Selectivity Ratios FAP” value is listed as “D (50 < D ≦ 100)”.
